Results as given in US20120108422A1, “Antifungal 1,2,4-triazolyl Derivatives” (BASF SE, priority 2009, published 2012).

assay: physchem

Which logP does the source give for `CC(Cc1ccc(F)cc1F)CC(O)(Cn1nc[nH]c1=S)C(C)(C)C` (centres unmarked) [Example 2, 2-[2-tert-butyl-5-(2,4-difluorophenyl)-2-hydroxy-4-methyl-pentyl]-2,4-dihydro-[1,2,4]triazole-3-thione] here?
Its logP is 3.8.

For `CC(C)(C)C(O)(CCCc1ccc(F)cc1F)Cn1nc[nH]c1=S` (centres unmarked) [Example 10, 2-[2-tert-butyl-5-(2,4-difluoro-phenyl)-2-hydroxy-pentyl]-2,4-dihydro-[1,2,4]triazole-3-thione], which logP is on record?
The logP was 3.3.

For `CC(C)(C)C(O)(CCCCc1ccc(F)cc1)Cn1nc[nH]c1=S` (centres unmarked) [Example 15, 1-[2-tert-Butyl-6-(4-fluorophenyl)-2-hydroxyhexyl]-1H-1,2,4-triazole-5(4H)-thione], which logP is on record?
The logP was 3.7.

For `CC(C)(C)C(O)(CCCCc1ccccc1)Cn1nc[nH]c1=S` (centres unmarked) [Example 16, 1-[2-tert-butyl-6-phenyl-2-hydroxyhexyl]-1H-1,2,4-triazole-5(4H)-thione], which logP is on record?
Its logP is 3.6.

Which logP does the source give for `CC(C)(C)C(O)(CCCCc1ccc(Cl)cc1)Cn1nc[nH]c1=S` (centres unmarked) [Example 17, 1-[2-tert-butyl-6-(4-chlorophenyl)-2-hydroxyhexyl]-1H-1,2,4-triazole-5(4H)-thione] here?
The logP was 4.2.

For `CC(C)(C)C(O)(CCCCc1ccccc1Cl)Cn1nc[nH]c1=S` (centres unmarked) [Example 18, 1-[2-tert-butyl-6-(2-chlorophenyl)-2-hydroxyhexyl]-1H-1,2,4-triazole-5(4H)-thione], which logP is on record?
The logP was 4.

Which logP does the source give for `CC(C)(C)C(O)(CCCCc1ccccc1F)Cn1nc[nH]c1=S` (centres unmarked) [Example 19, 1-[2-tert-butyl-6-(2-fluorophenyl)-2-hydroxyhexyl]-1H-1,2,4-triazole-5(4H)-thione] here?
Its logP is 3.4.

With `CC(C)(C)C(O)(CCCCc1ccc(Cl)cc1Cl)Cn1nc[nH]c1=S` (centres unmarked) [Example 20, 1-[2-tert-butyl-6-(2,4-dichlorophenyl)-2-hydroxyhexyl]-1H-1,2,4-triazole-5(4H)-thione] as the molecule, how does the logP read?
Its logP is 4.7.

With `CC(C)(C)C(O)(CCCCCc1ccc(F)cc1)Cn1nc[nH]c1=S` (centres unmarked) [Example 21, 1-[2-tert-butyl-7-(4-fluorophenyl)-2-hydroxyheptyl]-1H-1,2,4-triazole-5(4H)-thione] as the molecule, how does the logP read?
The logP was 4.

Which logP does the source give for `CC(C)(C)C(O)(CCCCCc1ccccc1F)Cn1nc[nH]c1=S` (centres unmarked) [Example 22, 1-[2-tert-butyl-7-(2-fluorophenyl)-2-hydroxyheptyl]-1H-1,2,4-triazole-5(4H)-thione] here?
Its logP is 4.2.

For `CC(C)(C)C(O)(CCCCCc1ccc(Cl)cc1)Cn1nc[nH]c1=S` (centres unmarked) [Example 23, 1-[2-tert-butyl-7-(4-chlorophenyl)-2-hydroxyheptyl]-1H-1,2,4-triazole-5(4H)-thione], which logP is on record?
Its logP is 4.4.
